Article PMC3201719 (ACS medicinal chemistry letters, 2011)
Non-standard residues stand in square brackets, D forms with d. Residues, ends and D or L forms follow the SMILES beside them. *: point of attachment. Hydrocinnamoyl = O=C(CCc1ccccc1)*; pS = N[C@@H](COP(=O)(O)O)C(=O)O; X2 = COc1ccc(CC(=O)*)cc1OC

Molecular target: BRCT-BRCA1 (Homo sapiens, UniProt P38398)
Test: Fluorescence polarization
Type: binding

Sequence of BRCT-BRCA1 (P38398 1646-1859 limits assumed): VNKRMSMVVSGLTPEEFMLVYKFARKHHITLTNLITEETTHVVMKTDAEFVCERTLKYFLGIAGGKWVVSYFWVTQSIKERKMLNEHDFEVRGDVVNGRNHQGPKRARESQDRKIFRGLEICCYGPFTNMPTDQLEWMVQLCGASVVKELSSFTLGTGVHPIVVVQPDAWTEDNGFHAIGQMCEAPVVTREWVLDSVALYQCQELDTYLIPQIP

| SMILES | fold higher activity than parent peptide 4 (compared to parent peptide 4) | fold loss of activity compared to 9 (compared to mimic 9) |
| --- | --- | --- |
| CC(C)[C@H](NC(=O)[C@@H]1CCCN1C(=O)[C@H](COP(=O)(O)O)NC(=O)CCc1ccccc1)C(=O)N[C@@H](Cc1ccccc1)C(=O)O [compound 10] (Hydrocinnamoyl-[pS]PVF-OH; N-terminus assumed) | ~ 3 fold |  |
| COc1ccc(CC(=O)N[C@@H](COP(=O)(O)O)C(=O)N2CCC[C@H]2C(=O)N[C@H](C(=O)N[C@@H](Cc2ccccc2)C(=O)O)C(C)C)cc1OC [compound 13] (X2-[pS]PVF-OH; N-terminus assumed) |  | ~ 150 fold |
